Non-standard residues stand in square brackets, D forms with d. No end group written: not given here. *: point of attachment. Palmitoyl = CCCCCCCCCCCCCCCC(=O)*; Sar = CNCC(=O)O
Key:
Type in all cases: cell-based
explants of human skin [1] = assay: Increase in synthesis of collagen in vitro: 3H-proline incorporation in human skin explants; details: for increase of incorporation of 3H-proline (synthesis of collagen) relative to blank tests: 72 hours, human skin explants
Protocol: The method chosen is a modification of that described by Augustin C. et al. (Skin Pharmacol. (1997); 10:63-70) in that we have used explants of human skin instead of human pulmonary fibroblasts, so as to render our results directly usable in cosmetology. These explants, from abdominal or mammary plastic surgery, are incubated for 72 hours in the presence ^3H-proline, with peptide N-Palmitoyl-[…], to three final concentrations in the culture medium (2.10^-4%, 4.10^-4% and 8.10^-4%; namely, 2, 4 and 8 ppm). The explants are then washed, the […] of each explant are separated, homogenized and lysed. The measurement of the incorporation of ^3H-proline is thus carried out in each lysat. Tests were done in triplicate. In parallel, negative controls are carried out under the same conditions but in the absence of the peptide. Positive controls, themselves, are carried out by replacing the peptide tested by vitamin C.

explants of human skin [2] = assay: Increase of the synthesis of glycosaminoglycans in vitro: 3H-glucosamine incorporation in human skin explants; details: for increase of incorporation of 3H-glucosamine (synthesis of GAGs) relative to blank experiments: 72 hours, human skin explants
Protocol: The method chosen is a modification of that described by Augustin C. et al. (Skin Pharmacol. (1997); 10:63-70) in that we have used explants of human skin instead of human pulmonary fibroblasts, so as to render our results directly usable in cosmetology.
These explants, from abdominal or mammary plastic surgery, are incubated for 72 hours in the presence ^3H-proline, with peptide N-Palmitoyl-Sarcosine-Thr-Thr-Lys-Ser, to three final concentrations in the culture medium (2.10^−4%, 4.10^−4% and 8.10^−4%; namely, 2, 4 and 8 ppm). The explants are then washed, the derma and epiderma of each explant are separated, homogenized and lysed. The measurement of the incorporation of ^3H-proline is thus carried out in each lysat. Tests were done in triplicate.
In parallel, negative controls are carried out under the same conditions but in the absence of the peptide. Positive controls, themselves, are carried out by replacing the peptide tested by vitamin C.
The same protocol as in Example No. 3 is used, except that, on the one hand, the incubation is carried out in the presence of ^3H-glucosamine instead of ^3H-proline and vitamin A acid is used as reference product in place of vitamin C.

human fibroblasts = assay: Cutaneous toning activity in vitro: stimulation of protein synthesis, colorimetry (Biuret reaction); details: 24 hours, per 1000 cells
Protocol: For 24 hours, human fibroblasts from the same cellular culture are placed in the presence of the standard culture medium, supplemented or not for controls, with given concentrations of peptide (2, 4 and 8 ppm).
The stimulation of the synthesis of proteins is evaluated by colorimetry (so-called Biuret reaction).
To standardize the results, the quantity of proteins measured is expressed for 1000 cells present in the test.

O=C1O[C@H]([C@@H](O)CO)C(O)=C1O [ascorbic acid, reference compound]
increase of collagen synthesis (explants of human skin [1]; reference product at 0.5mM, same conditions): 61.4 (±5) %

CC1=C(/C=C/C(C)=C/C=C/C(C)=C/C(=O)O)C(C)(C)CCC1 [vitamin A acid, reference compound]
increase of synthesis of GAGs (explants of human skin [2]; reference product at 100 nM, same conditions): 45.3 (±2) %

KTTKSA
increase of incorporation of 3H-glucosamine (synthesis of GAGs) relative to blank experiments (explants of human skin [2]; 2 ppm peptide): 24.5 (±3) %
increase of incorporation of 3H-glucosamine (synthesis of GAGs) relative to blank experiments (explants of human skin [2]; 4 ppm peptide): 48.8 (±3) %
increase of incorporation of 3H-glucosamine (synthesis of GAGs) relative to blank experiments (explants of human skin [2]; 8 ppm peptide): 67.9 (±5) %

N-Palmitoyl-Lys-Thr-Thr-Lys-Ser (Palmitoyl-KTTKS) [N-palmytoyl-Lys-Thr-Thr-Lys-Ser]
increase in the concentration of proteins relative to control experiments (human fibroblasts; 2 ppm peptide): 14.7 (±1.0) %
increase in the concentration of proteins relative to control experiments (human fibroblasts; 4 ppm peptide): 21.0(±2.4) %
increase in the concentration of proteins relative to control experiments (human fibroblasts; 8 ppm peptide): 44.8(±1.0) %

N-Palmitoyl-Sarcosine-Thr-Thr-Lys-Ser (Palmitoyl-[Sar]TTKS)
increase of incorporation of 3H-proline (synthesis of collagen) relative to blank tests (explants of human skin [1]; 2 ppm peptide): 30.2 (±2) %
increase of incorporation of 3H-proline (synthesis of collagen) relative to blank tests (explants of human skin [1]; 4 ppm peptide): 54.7 (±5) %
increase of incorporation of 3H-proline (synthesis of collagen) relative to blank tests (explants of human skin [1]; 8 ppm peptide): 90.9 (±5) %

— US6620419B1, “Cosmetic or dermopharmaceutical use of peptides for healing, hydrating and improving skin appearance during natural or induced ageing (heliodermia, pollution)” (Sederma, priority 1998, dated 2003)
